Assay results reported in EP2292587A1, “PHARMACEUTICAL COMPOSITION FOR INHIBITING THE TRANSCRIPTION FACTOR INDUCIBLE BY HYPOXIA, MODULATORS OF PATHOLOGICAL PROCESSES OF ANGIOGENESIS, ONCOGENESIS, INFLAMMATION, APOPTOSIS, AND CELLULAR THERAPY” (Fundacion De La Comunidad Valenciana Centro De …, priority 2008, dated 2009).

Tested on: C17.2
Assay: toxicity in C17.2 neural stem cells
Format: cell-based
Settings: Mus musculus
Method: C17.2 were cultured in an undifferentiated state using a high-glucose Dulbecco's modified medium (DMEM) supplemented with 10% fetal calf serum, 5% horse serum, 1% glutamine (2 mM), 1% penicillin/streptomycin/fungizone. The cells were seeded at 1500 cells/cm^2, both for normoxic conditions and for hypoxic conditions. The culture of cells in normoxia was carried out in an incubator with 20% O2, 5% CO2, 37°C and the standard percentage of humidity (94%). The conditions of low concentration of O2 were created by using a hypoxia chamber (Invivo2 400, Ruskinn Life Sciences), with the mixture of gases 1% O2, 5% CO2, and 94% N2 at 37°C. The cells were maintained under the normoxic and hypoxic conditions at different times 3, 6, 9, 24, 48 hours. They were subsequently collected and the proteins and the mRNA were extracted using a commercial kit, NucleoSpin RNA/protein (Macherey Nagel) according to the manufacturers' instructions. The concentrations of 19G11 used during the studies conducted are 125, 250 and 500 nM. The concentrations were used according to the results obtained after evaluating the toxicity of C17.2 due to the presence of the compound, since IC50 >1 µM.

Cc1ccc(C(=O)COC(=O)c2cccc(NC(=O)c3ccc([N+](=O)[O-])cc3[N+](=O)[O-])c2)cc1 [FM19G11, 2-oxo-2-(p-tolyl)ethyl 3-((2,4-dinitro)benzamido)benzoate]
IC50: > 1 µM
